According to article PMC7002685, “Inhibition of vascular calcification by inositol phosphates derivatized with ethylene glycol oligomers” (Nature Communications, 2020):

What was measured:
[1] = Precipitation in culture medium (naked eye, microscope); assay type: physicochemical; conditions: 100 µM, VSMC and macrophage assays
Method: Macrophage accumulation and inflammation coincide with the initial phase of calcification. To this end, VSMCs and THP-1-derived macrophages were exposed to CPP2-supplemented medium. CPP2 prepared from human serum as described previously[61] (Supplementary Figs. 6 and 7), induced a pronounced VSMC monolayer calcification after 48 h, which was decreased by (OEG2)2-IP4 in a dose-dependent fashion, and the effect became significant at 10 µM (Fig. 3e). […] Both H2O2 (proxy for oxidative stress) and tumor necrosis factor-alpha (TNF-α) (proxy for inflammatory response) levels were assayed in the VSMC culture supernatants subsequent to CPP2 treatment with and without compounds[30]. However, no increase in H2O2 nor TNF-α compared to control could be detected in either assay. For the CPP-induced VSMC calcification assay (Fig. 3e) a roughly 10-fold higher concentration of (OEG2)2-IP4 was necessary to achieve similar activity as in the CaP-induced VSMC calcification assay (Fig. 3b). […]
Occurrence of precipitation in the different treatment groups was assessed visually by the naked eye and by a microscope (CTR6000, Leica Camera AG) at ×25 magnification at 0 and 24 h (performed once in duplicate).

[2] = biological target: T1, Cyclooxygenase COX-1 (Homo sapiens, UniProt P23219); assay: Off-target 116020; assay type: biochemical
T1 construct: purchased Eurofins Panlabs Discovery Services Taiwan, Ltd
T1 sequence (P23219 24-599): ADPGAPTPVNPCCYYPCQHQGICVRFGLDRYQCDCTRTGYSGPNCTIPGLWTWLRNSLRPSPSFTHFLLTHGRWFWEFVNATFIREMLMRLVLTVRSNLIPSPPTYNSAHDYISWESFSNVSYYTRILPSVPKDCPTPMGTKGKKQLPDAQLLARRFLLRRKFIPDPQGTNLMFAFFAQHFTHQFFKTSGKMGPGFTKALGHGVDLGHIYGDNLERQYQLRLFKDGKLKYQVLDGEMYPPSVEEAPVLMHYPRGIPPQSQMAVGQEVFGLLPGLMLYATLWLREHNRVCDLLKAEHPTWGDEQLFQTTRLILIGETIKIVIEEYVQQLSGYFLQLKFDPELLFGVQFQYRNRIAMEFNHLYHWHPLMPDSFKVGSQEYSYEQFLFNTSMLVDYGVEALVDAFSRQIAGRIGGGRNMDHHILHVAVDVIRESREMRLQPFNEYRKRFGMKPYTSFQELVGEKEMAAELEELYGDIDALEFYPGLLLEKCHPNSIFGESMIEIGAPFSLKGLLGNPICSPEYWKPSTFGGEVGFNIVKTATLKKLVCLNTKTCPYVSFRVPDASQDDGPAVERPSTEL
Method: (§1) The potential off-target activity of 10 µM (OEG2)2-IP4 was assessed against a panel of 87 enzymes, receptors, or ion channels that are used in standard safety pharmacology screens.
(§2) 3.2. Off-target screening assay
(§3) The experiments were conducted by a contract research organization (Eurofins Panlabs Discovery
(§4) Services Taiwan, Ltd.) and details on the respective assays can be retrieved via the catalog number
(§5) provided in Supplementary Table 11 from the company’s webpage
(§6) (https://www.eurofinsdiscoveryservices.com/). […]

[3] = PK s.c. in rats with vitamin D and warfarin-induced VC; assay type: in vivo; conditions: Sprague-Dawley, rat, plasma, sc, 50 mg/kg, 50 mg/kg s.c., Cardiovascular calcification model
Method: Moreover, the systemic exposure of the compound after s.c. administration was assessed in rats with VC (Fig. 4f, Supplementary Table 3).
To study PK in rats presenting with VC, plasma samples were used from a sub-group of the study where calcification was induced with vitamin D and warfarin treatment.
The bioanalytical method for (OEG2)2-IP4 in rat plasma was further optimized, qualified, and applied to the comparative PK study in adenine and high-phosphate diet-induced VC vs. vitamin D-induced VC animals. The LC-MS/MS analyses were carried out using a Dionex Ultimate RSLC ultra-high-pressure liquid chromatography (UHPLC) system (Thermo Fisher Scientific) coupled with a TSQ Quantiva^TM triple quadrupole mass spectrometer. The samples were stored at 5 °C in the autosampler prior to and during the analyses. […] Gradient elution (solvent A, 20 mM ammonium acetate in water (pH 5); solvent B, ACN) was used according to the program reported in Supplementary Table 18. The injection volume was 10 µL. MS/MS parameters (MRM acquisition, cycle time 0.2 s) for (OEG2)2-IP4 are reported in Supplementary Table 19 and the ESI source, working in negative ionization mode, applied the following parameters: static spray voltage 3000 V ion transfer tube and vaporizer temperatures at 400 and 100 °C, respectively; sheath and auxiliary gas (nitrogen) flow rates at 80 and 3 (arbitrary units). For the quantitative determination in rat plasma, product ion m/z 158.9 was selected because it provided the best sensitivity and selectivity. Calibration curve and quality control samples were prepared by adding 2 μL of working solution to 38 μL rat blank K3EDTA plasma (Biochemed, Winchester, VA) and precipitating plasma protein by addition of 120 μL of MeOH including internal standard OEG11-IP5. Samples were vortexed 1 min and centrifuged at (22,000 × g, 4 °C, 10 min). Supernatants (90 μL) were then transferred into a glass vial with insert and injected onto LC-MS/MS system. Both in adenine and high-phosphate diet-induced VC and vitamin D-induced VC rat PK samples were prepared for analysis in an analogous manner as done for spiked samples (assay volume 40 μL). The LLOQ and LOD in rat plasma for (OEG2)2-IP4 were 50 and 10 ng/mL, respectively. The ULOQ and detection was 50,000 ng/mL.

[4] = biological target: T2, Dopamine D2S (Homo sapiens, UniProt P14416); assay: Off-target 219700; assay type: binding
T2 construct: purchased Eurofins Panlabs Discovery Services Taiwan, Ltd
T2 sequence (P14416 1-414 isoform P14416-2): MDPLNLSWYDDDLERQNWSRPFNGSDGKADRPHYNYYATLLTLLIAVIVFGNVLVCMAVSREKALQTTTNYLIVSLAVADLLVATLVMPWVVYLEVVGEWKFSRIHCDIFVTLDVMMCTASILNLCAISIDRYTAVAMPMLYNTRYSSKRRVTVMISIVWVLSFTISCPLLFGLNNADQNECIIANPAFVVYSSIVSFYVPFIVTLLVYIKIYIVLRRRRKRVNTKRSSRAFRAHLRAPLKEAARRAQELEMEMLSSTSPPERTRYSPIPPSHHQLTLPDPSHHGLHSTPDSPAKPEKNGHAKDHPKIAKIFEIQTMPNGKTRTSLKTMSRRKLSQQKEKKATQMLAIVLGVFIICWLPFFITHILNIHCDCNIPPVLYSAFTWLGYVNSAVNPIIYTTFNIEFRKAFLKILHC
Method: as §1, §2
(§7) The experiments were conducted by a contract research organization (Eurofins Panlabs Discovery Services Taiwan, Ltd.) and details on the respective assays can be retrieved via the catalog number provided in Supplementary Table 11 from the company’s webpage
as §6
(§8) At sacrifice the left tibia of animals of the rat model with dietary adenine/high-phosphate-induced uremia and VC was collected, fixed with 70% v/v EtOH and embedded in methyl methacrylate. The trabecular bone compartment is known to be the most metabolic active i.e. actively re-structured bone compartment in CKD. Therefore, histomorphometric and micro-computed tomography (µCT) analysis of bone was performed on the trabecular compartment. Tibial sections were Goldner-stained for histomorphometric analysis of the proximal metaphysis using the AxioVision Release 4.5 software, as […]
(§9) described previously5. […]

[5] = biological target: T3, Phosphodiesterase PDE3 (Homo sapiens, UniProt Q14432); assay: Off-target 152000; assay type: biochemical
T3 construct: purchased Eurofins Panlabs Discovery Services Taiwan, Ltd
T3 sequence (Q14432 whole entry): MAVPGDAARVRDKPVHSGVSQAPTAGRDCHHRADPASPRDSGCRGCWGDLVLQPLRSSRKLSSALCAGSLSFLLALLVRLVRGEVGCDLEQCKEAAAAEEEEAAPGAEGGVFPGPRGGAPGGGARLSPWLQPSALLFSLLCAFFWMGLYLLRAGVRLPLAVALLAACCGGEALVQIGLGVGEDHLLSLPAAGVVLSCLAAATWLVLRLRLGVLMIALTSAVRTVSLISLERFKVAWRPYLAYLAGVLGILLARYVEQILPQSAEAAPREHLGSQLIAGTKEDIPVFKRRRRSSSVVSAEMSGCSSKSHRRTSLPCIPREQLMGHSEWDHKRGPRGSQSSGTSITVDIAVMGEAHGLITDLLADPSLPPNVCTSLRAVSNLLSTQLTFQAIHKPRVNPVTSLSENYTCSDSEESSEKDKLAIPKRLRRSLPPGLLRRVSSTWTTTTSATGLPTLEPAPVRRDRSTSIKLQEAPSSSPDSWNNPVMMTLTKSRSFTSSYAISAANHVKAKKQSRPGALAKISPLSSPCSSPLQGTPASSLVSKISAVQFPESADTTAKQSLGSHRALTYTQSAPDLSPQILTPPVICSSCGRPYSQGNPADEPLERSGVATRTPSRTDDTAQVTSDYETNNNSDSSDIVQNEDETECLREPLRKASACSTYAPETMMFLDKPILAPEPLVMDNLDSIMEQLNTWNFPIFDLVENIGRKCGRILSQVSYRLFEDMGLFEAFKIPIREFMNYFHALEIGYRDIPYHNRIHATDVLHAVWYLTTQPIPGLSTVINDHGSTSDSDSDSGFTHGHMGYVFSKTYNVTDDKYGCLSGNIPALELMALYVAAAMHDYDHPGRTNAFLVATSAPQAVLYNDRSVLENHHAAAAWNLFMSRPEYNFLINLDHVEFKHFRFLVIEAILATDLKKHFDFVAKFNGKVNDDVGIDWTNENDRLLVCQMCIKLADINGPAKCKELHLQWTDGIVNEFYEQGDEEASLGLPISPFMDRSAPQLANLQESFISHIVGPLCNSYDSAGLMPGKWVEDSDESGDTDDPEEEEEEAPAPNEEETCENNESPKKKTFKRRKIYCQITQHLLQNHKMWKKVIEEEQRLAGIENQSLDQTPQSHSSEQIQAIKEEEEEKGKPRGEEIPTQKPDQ
Method: as §1, §2, §3, §4, §5, §6

[6] = system: THP-1-derived macrophages; assay: Macrophage viability, compound without CPP2; assay type: cell-based, human
Method: Cell viability was assessed using the MTS assay (CellTiter 96® Aqueous One Solution Cell Proliferation Assay, G3580; Promega, Madison, WI, USA) according to the manufacturer’s instructions. Assays using combined treatment of CPPs or CaP and test compounds were performed in 24-well plates using 20,000 cells per well and assays using test compounds only were performed in a 96-well plate format with a seeding density of 10,000 (VSMC) or 50,000 (THP-1) cells per well, respectively. For controls, cells were treated with respective complete medium only and results were calculated as % of control. […]
(n = 3 independent experiments).

[7] = system: Protein Serine/Threonine Kinase, PKC, Non-selective; assay: Off-target 178010; assay type: biochemical, Rat; conditions: 10 µM
Method: as §1, §2, §7, §6, §8, §9

[8] = system: Glutamate, Kainate; assay: Off-target 232710; assay type: binding, Rat; conditions: 10 µM
Method: as §1, §2, §3, §4, §5, §6

[9] = biological target: T4, Serotonin (5-Hydroxytryptamine) 5-HT2C (Homo sapiens, UniProt P28335); assay: Off-target 271800; assay type: binding
T4 construct: purchased Eurofins Panlabs Discovery Services Taiwan, Ltd
T4 sequence (P28335 33-458): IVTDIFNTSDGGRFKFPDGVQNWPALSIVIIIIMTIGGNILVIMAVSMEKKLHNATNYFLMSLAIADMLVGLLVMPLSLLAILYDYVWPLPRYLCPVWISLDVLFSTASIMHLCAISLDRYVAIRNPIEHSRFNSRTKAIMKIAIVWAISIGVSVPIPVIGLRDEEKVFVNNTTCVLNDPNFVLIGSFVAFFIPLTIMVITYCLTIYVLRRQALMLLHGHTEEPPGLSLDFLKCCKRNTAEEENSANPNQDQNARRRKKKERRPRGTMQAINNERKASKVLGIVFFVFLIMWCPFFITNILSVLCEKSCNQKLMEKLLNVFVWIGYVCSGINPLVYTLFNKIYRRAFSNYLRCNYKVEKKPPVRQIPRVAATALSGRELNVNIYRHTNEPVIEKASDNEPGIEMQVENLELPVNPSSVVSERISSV
Method: as §1, §2, §7, §6, §8, §9

Row | Structure (SMILES) | precipitation in culture medium [1] | inhibition at 10 µM [2] [%] | AUC(0-inf) [3] [µM·h] | CL/F [3] [mL/min/kg] | Cmax [3] [µM] | half-life [3] [min] | AUC(0-t) ([3]; read-out: AUC0-1440 (converted)) [µM·h] | MRT last ([3]; read-out: MRT0-1440 (converted)) [h] | inhibition at 10 µM [4] [%] | inhibition at 10 µM [5] [%] | macrophage viability [6] | % Inhibition [7] [%] | % Inhibition [8] [%] | inhibition at 10 µM [9] [%]
1 | O=P(O)(O)O[C@H]1[C@H](OP(=O)(O)O)[C@@H](OP(=O)(O)O)[C@H](OP(=O)(O)O)[C@@H](OP(=O)(O)O)[C@H]1OP(=O)(O)O [IP6, myo-Inositol hexakisphosphate] | precipitation in culture medium occurred | – | – | – | – | – | – | – | – | – | – | – | – | –
2 | COCCOCCO[C@@H]1[C@@H](OP(=O)(O)O)[C@H](OCCOCCOC)[C@@H](OP(=O)(O)O)[C@@H](OP(=O)(O)O)[C@H]1OP(=O)(O)O [(OEG2)2-IP4, 4,6-Di-O-(methoxy-diethyleneglycol)-myo-inositol-1,2,3,5-tetrakis(phosphate)] | – | -2 | 152 | 7 ± 2 | 34 ± 8 | 224 ± 44 | 151 | 3.5 | 7 | -1 | does not alter viability | -18 | 17 | -5
